Calls of active or inactive are those of the source. The calls are words filed in the database; no cut-off is given here.
Assays:
Assay type in all cases: cell-based
SN4741 = experiment: Agonist activity at LXR in mouse SN4741 cells assessed as upregulation of ABCA1 protein expression at 10 uM by immunoblot analysis
[1] = biological target: T1, Oxysterols receptor LXR-alpha (Homo sapiens) (UniProt Q13133); experiment: Agonist activity at LXRalpha (unknown origin) transfected in mouse SN4741 cells at 10 uM after 24 hrs by luciferase reporter gene assay
T1 sequence (whole entry): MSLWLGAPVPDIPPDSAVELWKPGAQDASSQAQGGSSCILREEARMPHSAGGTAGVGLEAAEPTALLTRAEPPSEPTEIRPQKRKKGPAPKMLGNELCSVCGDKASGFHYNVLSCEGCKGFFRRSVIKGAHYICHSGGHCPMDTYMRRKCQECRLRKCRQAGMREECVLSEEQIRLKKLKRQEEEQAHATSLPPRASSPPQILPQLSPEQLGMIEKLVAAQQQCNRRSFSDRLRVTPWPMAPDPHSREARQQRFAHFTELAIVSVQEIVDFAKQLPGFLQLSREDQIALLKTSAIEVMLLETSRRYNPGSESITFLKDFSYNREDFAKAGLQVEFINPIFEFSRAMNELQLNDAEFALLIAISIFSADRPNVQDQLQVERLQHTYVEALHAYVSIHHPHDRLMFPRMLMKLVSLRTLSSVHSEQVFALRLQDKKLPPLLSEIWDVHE

[2] = biological target: T2, Oxysterols receptor LXR-beta (Homo sapiens) (UniProt P55055); experiment: Agonist activity at LXRbeta (unknown origin) transfected in mouse SN4741 cells at 10 uM after 24 hrs by luciferase reporter gene assay
T2 sequence (whole entry): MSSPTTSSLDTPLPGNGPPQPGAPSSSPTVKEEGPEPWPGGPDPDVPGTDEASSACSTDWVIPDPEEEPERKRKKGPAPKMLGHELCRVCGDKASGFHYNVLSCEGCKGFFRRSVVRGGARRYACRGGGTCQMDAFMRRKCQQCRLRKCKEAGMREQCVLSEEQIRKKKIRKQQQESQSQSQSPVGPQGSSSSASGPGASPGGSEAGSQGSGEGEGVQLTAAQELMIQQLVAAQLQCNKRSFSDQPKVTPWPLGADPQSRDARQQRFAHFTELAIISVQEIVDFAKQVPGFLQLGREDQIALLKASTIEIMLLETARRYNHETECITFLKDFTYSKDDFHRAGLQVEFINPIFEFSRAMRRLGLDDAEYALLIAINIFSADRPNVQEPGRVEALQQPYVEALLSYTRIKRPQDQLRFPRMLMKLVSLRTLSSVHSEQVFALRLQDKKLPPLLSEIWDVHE

Activity [1]	Activity [2]	Compound	Activity (SN4741)
Active	Active	CC(C)=CCC[C@@H](C)[C@H]1CC[C@H]2[C@@H]3CC=C4C[C@@H](O)CC[C@]4(C)[C@H]3CC[C@]12C	Active
inactive	inactive	C/C(=C/CC[C@@H](C)[C@H]1CC[C@H]2[C@@H]3CC=C4C[C@@H](O)CC[C@]4(C)[C@H]3CC[C@]12C)CO	inactive
inactive	inactive	C/C(=C\CC[C@@H](C)[C@H]1CC[C@H]2[C@@H]3CC=C4C[C@@H](O)CC[C@]4(C)[C@H]3CC[C@]12C)CO	inactive

Reference: ChEMBL document CHEMBL2417471, “Synthesis and biological activity of (24E)- and (24Z)-26-hydroxydesmosterol” (Bioorg Med Chem, 2013)
